Like-named read-outs stand apart in the source and are kept apart here.

The target of experiment [1] is T1, interaction between glucokinase (GK) and glucokinase regulatory protein (GKRP) (Homo sapiens, UniProt Q14397).
T1 sequence (Q14397 1-625): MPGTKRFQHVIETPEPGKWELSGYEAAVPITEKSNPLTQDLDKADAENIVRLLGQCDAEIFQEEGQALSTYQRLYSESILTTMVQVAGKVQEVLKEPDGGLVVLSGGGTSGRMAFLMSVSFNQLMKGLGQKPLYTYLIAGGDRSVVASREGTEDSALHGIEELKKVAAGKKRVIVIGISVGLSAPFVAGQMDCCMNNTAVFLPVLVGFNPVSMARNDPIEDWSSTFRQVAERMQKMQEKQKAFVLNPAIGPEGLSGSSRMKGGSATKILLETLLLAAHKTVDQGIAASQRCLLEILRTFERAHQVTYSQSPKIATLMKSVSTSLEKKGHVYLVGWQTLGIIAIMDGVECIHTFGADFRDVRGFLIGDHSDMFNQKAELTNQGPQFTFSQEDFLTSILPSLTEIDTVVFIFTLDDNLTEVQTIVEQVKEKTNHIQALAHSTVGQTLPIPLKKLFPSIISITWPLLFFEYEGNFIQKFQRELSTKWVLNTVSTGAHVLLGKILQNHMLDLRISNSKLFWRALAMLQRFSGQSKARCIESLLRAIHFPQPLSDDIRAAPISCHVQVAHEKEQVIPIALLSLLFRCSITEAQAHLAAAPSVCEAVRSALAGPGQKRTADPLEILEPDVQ
The experiment is described as follows: biochemical. It is filed as binding. The method, boiled down: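 Measures direct GK–GKRP binding in 20 mM Tris pH 7.5 containing 1 μM sorbitol-6-phosphate, 0.05% BSA and 1 mM DTT. Compound and avi-tagged GKRP sit 20 min at room temperature before GK-fluorescein addition (6 nM in the added buffer); read after 2 h dark incubation at room temperature.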

Experiment [2] addresses T2, GKRP (Glucokinase Regulatory Protein) with human His-hepatic GK (Homo sapiens, UniProt Q14397).
T2 sequence (Q14397 1-625): T1 sequence (Q14397 1-625)
The experiment is described as follows: biochemical. The method in brief:
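Product formation, 13C-glucose-6-phosphate from 13C-glucose, was measured directly by LC MS/MS after acetonitrile quench. The GK reaction ran 30 min at room temperature in Tris pH 7.5 buffer with 4 mM MgCl2 and 6% DMSO. The 5× enzyme stock was 30 nM His-tagged human hepatic glucokinase.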

Setting [3] is: avi-tagged GKRP, GK-fluorescein, AlphaScreen beads, read-out: GK-GKRP IC50 (Binding).
Where [4] appears, read: 13C-glucose-6-phosphate formation, 280 nM GKRP (10×), 30 nM GK (5×), read-out: GK-GKRP EC50 (LC MS/MS-2).

As for `CC(O)(c1ccc(N2CCN(S(=O)(=O)c3cccs3)C[C@@H]2CN(CC2CCC2)S(C)(=O)=O)cc1)C(F)(F)F` (mixture of isomers) [Example 218, N-(cyclobutylmethyl)-N-(((2S)-4-(2-thiophenylsulfonyl)-1-(4-(2,2,2-trifluoro-1-hydroxy-1-methylethyl)phenyl)-2-piperazinyl)methyl)methanesulfonamide], the IC50 (commonly the concentration that gives 50% inhibition) in experiment [1] (setting [3]) came out at 24 nM. The EC50 in experiment [2] (setting [4]) was found to be 17 nM.
In the case of `CC(O)(c1ccc(N2CCN(S(=O)(=O)c3cccs3)C[C@@H]2CN2CCOCC2CNS(C)(=O)=O)cc1)C(F)(F)F` (single isomer, unassigned) [Example 112 Peak #1], in experiment [1] (read-out: GK-GKRP IC50 (Binding)), the IC50 stood at 275 nM. The EC50 in experiment [2] (read-out: GK-GKRP EC50 (LC MS/MS-2)) was 986 nM.
On to `C[C@H]1COCCN1C[C@H]1CN(S(=O)(=O)c2cccs2)CCN1c1ccc(C(O)(CO)C(F)(F)F)cc1` (single isomer, unassigned) [Example 83 Peak #1], for which, in experiment [1] (setting [3]), the IC50 came to 32 nM. The EC50 in experiment [2] (setting [4]) was 68 nM.
For `C[C@H]1CN(S(=O)(=O)c2ccc(N)nc2)CCN1c1ncc(C(O)(C(F)(F)F)C(F)(F)F)cn1` [Example 93, 2-(2-((2S)-4-((6-amino-3-pyridinyl)sulfonyl)-2-methyl-1-piperazinyl)-5-pyrimidinyl)-1,1,1,3,3,3-hexafluoro-2-propanol], the IC50 in experiment [1] (setting [3]) came to 190 nM. Further, in experiment [2] (setting [4]), the EC50 was 196 nM.
As to `CC(O)(c1ccc(N2CCN(S(=O)(=O)c3cccs3)C[C@@H]2CN(C2COC2)C2COC2)cc1)C(F)(F)F` (mixture of isomers) [Example 205, 2-(4-((2S)-2-((di-3-oxetanylamino)methyl)-4-(2-thiophenylsulfonyl)-1-piperazinyl)phenyl)-1,1,1-trifluoro-2-propanol], in experiment [1] (setting [3]), the IC50 was 435 nM. In experiment [2] (setting [4]), the EC50 turned out to be 480 nM.
Consider `Nc1ccc(S(=O)(=O)N2CCN(c3ncc(C(O)(C(F)(F)F)C(F)(F)F)cn3)[C@@H](CN3C4COCC3CC(O)C4)C2)s1` (stereo partly drawn) [Example 98 nonan-7-ol (endo), 9-(((2S)-4-((5-amino-2-thiophenyl)sulfonyl)-1-(5-(2,2,2-trifluoro-1-hydroxy-1-(trifluoromethyl)ethyl)-2-pyrimidinyl)-2-piperazinyl)methyl)-3-oxa-9-azabicyclo[3.3.1]nonan-7-ol (endo)], for which the IC50 in experiment [1] (setting [3]) amounted to 2 nM. Besides, in experiment [2] (setting [4]), the EC50 was determined as 19 nM.
For the compound `CC(O)(c1ccc(N2CCN(S(=O)(=O)c3cccs3)C[C@@H]2CN2C3COCC2C(O)C3)cc1)C(F)(F)F` (single isomer, unassigned) [Example 78 Peak #2], the IC50 in experiment [1] (setting [3]) was determined as 49 nM. Moreover, in experiment [2] (setting [4]), the EC50 was 60 nM.
Turning to `CC(C)N(C[C@H]1CN(S(=O)(=O)c2cccs2)CCN1c1ccc(C(C)(O)C(F)(F)F)cc1)S(=O)(=O)c1ccccc1` (mixture of isomers) [Example 197, N-(1-methylethyl)-N-(((2R)-4-(2-thiophenylsulfonyl)-1-(4-(2,2,2-trifluoro-1-hydroxy-1-methylethyl)phenyl)-2-piperazinyl)methyl)benzenesulfonamide], the IC50 in experiment [1] (setting [3]) is 215 nM. In addition, the EC50 in experiment [2] (setting [4]) came out at 80 nM.
For the compound `C[C@H]1CN(S(=O)(=O)c2ccc(N)s2)CCN1c1ccc(C(O)(C(F)(F)F)C(F)(F)F)cc1` [Example 149, 2-(4-((2S)-4-((5-amino-2-thiophenyl)sulfonyl)-2-methyl-1-piperazinyl)phenyl)-1,1,1,3,3,3-hexafluoro-2-propanol], the IC50 in experiment [1] (setting [3]) came to 450 nM. The EC50 in experiment [2] (setting [4]) is 109 nM.
In the case of `C[C@H]1COCCN1C[C@H]1CN(S(=O)(=O)c2ccc(N)nc2)CCN1c1ccc(C(C)(O)C(F)(F)F)cc1` (single isomer, unassigned) [Example 125 Peak #2], the IC50 in experiment [1] (setting [3]) was found to be 7 nM. Moreover, in experiment [2] (setting [4]), the EC50 worked out at 18 nM.
Regarding `CC(C)CN(C[C@H]1CN(S(=O)(=O)c2cccs2)CCN1c1ccc(C(C)(O)C(F)(F)F)cc1)S(=O)(=O)CC(F)(F)F` (mixture of isomers) [Example 214, 2,2,2-trifluoro-N-(2-methylpropyl)-N-(((2S)-4-(2-thiophenylsulfonyl)-1-(4-(2,2,2-trifluoro-1-hydroxy-1-methylethyl)phenyl)-2-piperazinyl)methyl) ethanesulfonamide], the IC50 in experiment [1] (setting [3]) came out at 238 nM. In experiment [2] (setting [4]), the EC50 came out at 247 nM.
Take `COC1C[C@H]2COC[C@@H](C1)N2C[C@H]1CN(S(=O)(=O)c2cccs2)CCN1c1ccc(C(C)(O)C(F)(F)F)cc1` (stereo partly drawn) [Example 109, 1,1,1-trifluoro-2-(4-((2S)-2-(((1R,5S)-7-methoxy-3-oxa-9-azabicyclo[3.3.1]non-9-yl)methyl)-4-(2-thiophenylsulfonyl)-1-piperazinyl)phenyl)-2-propanol (endo)]: in experiment [1] (setting [3]), the IC50 came out at 72 nM. Also, in experiment [2] (setting [4]), the EC50 came out at 81 nM.
The like results for `CC1(C)C(=O)NCCN1C[C@H]1CN(S(=O)(=O)c2cccs2)CCN1c1ccc(C(C)(O)C(F)(F)F)cc1` (single isomer, unassigned) [Example 180 Peak #2] were, in that order, 8 nM and 42 nM.
The like results for `CC(O)(c1ccc(N2CCN(S(=O)(=O)c3cccs3)C[C@@H]2CSc2ccccc2F)cc1)C(F)(F)F` (mixture of isomers) [Example 219, 1,1,1-trifluoro-2-(4-((2R)-2-(((2-fluorophenyl)sulfanyl)methyl)-4-(2-thiophenylsulfonyl)-1-piperazinyl)phenyl)-2-propanol] were, in that order, 14 nM and 25 nM.
For `CC(O)(c1ccc(N2CCN(S(=O)(=O)c3cccs3)C[C@@H]2C[S+]([O-])c2ccc(F)cc2)cc1)C(F)(F)F` (single isomer, unassigned) [Example 191 Peak#3], the IC50 in experiment [1] (setting [3]) is 259 nM. Further, the EC50 in experiment [2] (setting [4]) turned out to be 262 nM.
The like results for `Nc1ccc(S(=O)(=O)N2CCN(c3ccc(C(O)(C(F)(F)F)C(F)(F)F)cc3)CC2)s1` [Example 88, 2-(4-(4-((5-amino-2-thiophenyl)sulfonyl)-1-piperazinyl)phenyl)-1,1,1,3,3,3-hexafluoro-2-propanol] were, in that order, 302 nM and 150 nM.
The like results for “2-(4-((2S)-4-((5-amino-2-thiophenyl)sulfonyl)-2-(((3S)-3-methyl-4-morpholinyl)methyl)-1-piperazinyl)phenyl)-1,1,1,3,3,3-hexafluoro-2-propanol [Example 225]” were, in that order, 7 nM and 19 nM.
`CC(F)(c1ccc(N2CCN(S(=O)(=O)c3cccs3)C[C@@H]2CN2C3CCCC2CC(F)C3)cc1)C(F)(F)F` (mixture of isomers) [Example 142, 3-fluoro-9-(((2S)-1-(4-(1,2,2,2-tetrafluoro-1-methylethyl)phenyl)-4-(2-thiophenylsulfonyl)-2-piperazinyl)methyl)-9-azabicyclo[3.3.1]nonane (exo)]: the IC50 in experiment [1] (setting [3]) is 47 nM. Besides, the EC50 in experiment [2] (setting [4]) worked out at 189 nM.
Regarding `C[C@H]1CN(S(=O)(=O)c2ccc(N)nc2)CCN1c1ccc(C(O)(C(F)(F)F)C(F)(F)F)cc1` [Example 92, 2-(4-((2S)-4-((6-amino-3-pyridinyl)sulfonyl)-2-methyl-1-piperazinyl)phenyl)-1,1,1,3,3,3-hexafluoro-2-propanol], the IC50 in experiment [1] (setting [3]) came to 205 nM. Further, the EC50 in experiment [2] (setting [4]) is 233 nM.
Consider `CC(O)(c1ccc(N2CCN(S(=O)(=O)c3cccs3)C[C@@H]2CN2CCC[C@H](O)C2)cc1)C(F)(F)F` (mixture of isomers) [Example 145, (3S)-1-(((2S)-4-(2-thiophenylsulfonyl)-1-(4-(2,2,2-trifluoro-1-hydroxy-1-methylethyl)phenyl)-2-piperazinyl)methyl)-3-piperidinol], for which, in experiment [1] (setting [3]), the IC50 is 628 nM. Moreover, the EC50 in experiment [2] (setting [4]) was 880 nM.
Turning to `CC(O)(c1ccc(N2CCN(S(=O)(=O)c3cccs3)C[C@@H]2CSc2ccc(F)cc2)cc1)C(F)(F)F` (mixture of isomers) [Example 190, 1,1,1-trifluoro-2-(4-((2R)-2-(((4-fluorophenyl)sulfanyl)methyl)-4-(2-thiophenylsulfonyl)-1-piperazinyl)phenyl)-2-propanol], the IC50 in experiment [1] (setting [3]) worked out at 30 nM. In experiment [2] (setting [4]), the EC50 came to 15 nM.
For the compound `CC(O)(c1ccc(N2CCN(S(=O)(=O)c3cccs3)C[C@@H]2CN2CC3CCOC3C2)cc1)C(F)(F)F` (stereo partly drawn) [Example 122, 1,1,1-trifluoro-2-(4-((2S)-2-(cis-hexahydro-5H-furo[2,3-c]pyrrol-5-ylmethyl)-4-(2-thiophenylsulfonyl)-1-piperazinyl)phenyl)-2-propanol], the IC50 in experiment [1] (GK-GKRP IC50 (Binding)) amounted to 555 nM. The same compound displayed an EC50 in experiment [2] (GK-GKRP EC50 (LC MS/MS-2)) of 313 nM.

These data come from US8431563B2 (priority 2010, dated 2013).
